US20240358777A1, “COMPOSITIONS COMPRISING BACILLUS AMYLOLIQUEFACIENS FOR PREVENTING AND TREATING ULCERATIVE COLITIS” (Artugen Therapeutics Ltd., priority 2021, published 2024)
Values after ≈ are worked out from the molar mass of the structure shown.

Tests used:
ART24 [1] = test: Additional EFSA-recommended MIC studies on ART24 lots and cell banks (Table 7); format: cell-based, Bacillus amyloliquefaciens
Experimental: The minimum inhibitory concentration (MIC) of the listed antimicrobials is expressed as μg/mL. Additional studies following EFSA testing recommendations were performed on lyophilized ART24 lots CO-33-10A2 and CO-33-12A2 and Research and Master Cell Banks CO-33-ART24 BHI and CO-33-ART24 SYD, and those results are shown in Table 7.

ART24 [2] = test: Antibiotic susceptibility of ART24, MIC, VetMIC Lact-1 & Lact-2 panels (Table 6); format: cell-based, Bacillus amyloliquefaciens; details: for MIC: Bacillus amyloliquefaciens, read-out: ART24 MIC
Experimental: The minimum inhibitory concentration (MIC) of the listed antimicrobials is expressed as μg/mL. […] From this suspension 46 μL was transferred in to 23 mL of 90% Iso-Sensitest Broth (CM0473, Oxoid) containing 10% BHI broth to end with a final inoculum concentration of 5×10^5 CFU/mL. The wells of the prefabricated 96-well plates were filled with 100 μL of the final suspension. The plates were sealed with an […], Sigma Aldrich) sealing film (to facilitate growth of the […] strains. The plates were then incubated for 24 hr at 37° C. The results are recorded after 24 hours as the lowest concentration of the antibiotic to inhibit visible growth. The prefabricated panels […], Uppsala, Sweden) comprising the antibiotics ampicillin, vancomycin, gentamicin, kanamycin, streptomycin, erythromycin, clindamycin, tetracycline, chloramphenicol, neomycin, penicillin, quinupristin-dalfopristin, linezolid, trimethoprim, ciprofloxacin and rifampicin were used.

[3] = Bacillus amyloliquefaciens, source CO-33-10A2 (lyophilized lot), read-out: MIC
[4] = Bacillus amyloliquefaciens, source CO-33-12A2 (lyophilized lot), read-out: MIC
[5] = Bacillus amyloliquefaciens, source CO-33 ART 24 BHI, read-out: MIC
[6] = Bacillus amyloliquefaciens, source CO-33 ART 024 SYD, read-out: MIC
[7] = 24 hr at 37° C., average results from N = 6
[8] = source CO-33-10A2 (lyophilized lot)
[9] = source CO-33-12A2 (lyophilized lot)

Molecule	MIC (ART24 [1]; [3]) [µg/mL]	MIC (ART24 [1]; [4]) [µg/mL]	MIC (ART24 [1]; [5]) [µg/mL]	MIC (ART24 [1]; [6]) [µg/mL]	MIC interpretation (ART24 [1]; source CO-33-10A2)	MIC interpretation (ART24 [1]; source CO-33-12A2)	MIC interpretation (ART24 [1]; source CO-33 ART 24 BHI)	MIC interpretation (ART24 [1]; source CO-33 ART 024 SYD)	MIC (ART24 [2]; [7]) [µg/mL]	also measured
CC1(C)S[C@@H]2[C@H](NC(=O)[C@H](N)c3ccccc3)C(=O)N2[C@H]1C(=O)O [Ampicillin]	≤ 0.03	≤ 0.03	≤ 0.03	≤ 0.03	(S)	(S)	(S)	(S)	0.25 (≈ 0.715 µM)	
O=C(N[C@H](CO)[C@H](O)c1ccc([N+](=O)[O-])cc1)C(Cl)Cl [Chloroamphenicol, Chloramphenicol]	2 (≈ 6.19 µM)	2 (≈ 6.19 µM)	2 (≈ 6.19 µM)	2 (≈ 6.19 µM)	(S)	(S)	(S)	(S)	4 (≈ 12.4 µM)	
O=C(O)c1cn(C2CC2)c2cc(N3CCNCC3)c(F)cc2c1=O [Ciprofloxacin]	≤ 0.03	≤ 0.03	≤ 0.03	≤ 0.03	(S)	(S)	(S)	(S)	≤ 0.25	
CCC[C@@H]1C[C@@H](C(=O)N[C@@H]([C@H]2O[C@H](SC)[C@H](O)[C@@H](O)[C@H]2O)[C@H](C)Cl)N(C)C1 [Clindamycin]	0.12 (≈ 0.282 µM)	0.25 (≈ 0.588 µM)	0.25 (≈ 0.588 µM)	0.25 (≈ 0.588 µM)	(S)	(S)	(S)	(S)	0.5 to 1 (≈ 1.18 to 2.35 µM)	
CC[C@H]1OC(=O)[C@H](C)[C@@H](O[C@H]2C[C@@](C)(OC)[C@@H](O)[C@H](C)O2)[C@H](C)[C@@H](O[C@@H]2O[C@H](C)C[C@H](N(C)C)[C@H]2O)[C@](C)(O)C[C@@H](C)C(=O)[C@H](C)[C@@H](O)[C@]1(C)O [Erythromycin]	0.06 (≈ 0.0818 µM)	0.06 (≈ 0.0818 µM)	0.12 (≈ 0.164 µM)	0.12 (≈ 0.164 µM)	(S)	(S)	(S)	(S)	0.12 (≈ 0.164 µM)	
CCc1c(Cl)c(O)c(Cl)c(O)c1C(=O)O[C@H]1[C@H](O)[C@H](OC)[C@H](OC/C2=C\C=C\C[C@H](O)/C(C)=C/[C@H](CC)[C@@H](O[C@@H]3OC(C)(C)[C@@H](OC(=O)C(C)C)[C@H](O)[C@@H]3O)/C(C)=C/C(C)=C/C[C@@H]([C@@H](C)O)OC2=O)O[C@@H]1C [Fidaxomicin]	2 (≈ 1.89 µM)	4 (≈ 3.78 µM)	4 (≈ 3.78 µM)	4 (≈ 3.78 µM)						
NC[C@H]1O[C@H](O[C@H]2[C@H](O)[C@@H](O[C@H]3O[C@H](CO)[C@@H](O)[C@H](N)[C@H]3O)[C@H](N)C[C@@H]2N)[C@H](O)[C@@H](O)[C@@H]1O [Kanamycin]	≤ 0.5	≤ 0.5	≤ 0.5	≤ 0.5	(S)	(S)	(S)	(S)	≤ 2	
CC(=O)NC[C@H]1CN(c2ccc(N3CCOCC3)c(F)c2)C(=O)O1 [Linezolid]	0.25 (≈ 0.741 µM)	0.5 (≈ 1.48 µM)	0.5 (≈ 1.48 µM)	0.5 (≈ 1.48 µM)					0.5 (≈ 1.48 µM)	
Cc1ncc([N+](=O)[O-])n1CCO [Metronidazole]										MIC (ART24 [1]; Bacillus amyloliquefaciens, aerobic, source CO-33-10A2, read-out: MIC): > 64 µg/mL; MIC (ART24 [1]; Bacillus amyloliquefaciens, aerobic, source CO-33-12A2, read-out: MIC): > 64 µg/mL; MIC (ART24 [1]; Bacillus amyloliquefaciens, aerobic, source CO-33 ART 24 BHI, read-out: MIC): > 64 µg/mL; MIC (ART24 [1]; Bacillus amyloliquefaciens, aerobic, source CO-33 ART 024 SYD, read-out: MIC): > 64 µg/mL; MIC (ART24 [1]; Bacillus amyloliquefaciens, anaerobic, source CO-33-10A2, read-out: MIC): 64 µg/mL (≈ 374 µM); MIC (ART24 [1]; Bacillus amyloliquefaciens, anaerobic, source CO-33-12A2, read-out: MIC): 64 µg/mL (≈ 374 µM); MIC (ART24 [1]; Bacillus amyloliquefaciens, anaerobic, source CO-33 ART 24 BHI, read-out: MIC): 64 µg/mL (≈ 374 µM); MIC (ART24 [1]; Bacillus amyloliquefaciens, anaerobic, source CO-33 ART 024 SYD, read-out: MIC): 64 µg/mL (≈ 374 µM)
CO[C@H]1/C=C/O[C@@]2(C)Oc3c(C)c(O)c4c(O)c(c(/C=N/N5CCN(C)CC5)c(O)c4c3C2=O)NC(=O)/C(C)=C\C=C\[C@H](C)[C@H](O)[C@@H](C)[C@@H](O)[C@@H](C)[C@H](OC(C)=O)[C@@H]1C [Rifampicin]	0.25 (≈ 0.304 µM)	0.25 (≈ 0.304 µM)	0.25 (≈ 0.304 µM)	0.25 (≈ 0.304 µM)	(S)	(S)	(S)	(S)	0.5 (≈ 0.608 µM)	
[H]/N=C(/N)N[C@H]1[C@H](O)[C@@H](O)[C@H](O[C@@H]2O[C@@H](C)[C@](O)(C=O)[C@H]2O[C@@H]2O[C@@H](CO)[C@H](O)[C@@H](O)[C@@H]2NC)[C@@H](N/C(N)=N\[H])[C@@H]1O [Streptomycin]	1 (≈ 1.72 µM)	1 (≈ 1.72 µM)	1 (≈ 1.72 µM)	2 (≈ 3.44 µM)	(S)	(S)	(S)	(S)	4 (≈ 6.88 µM)	
CN(C)[C@@H]1C(O)=C(C(N)=O)C(=O)[C@@]2(O)C(O)=C3C(=O)c4c(O)cccc4[C@@](C)(O)[C@H]3C[C@@H]12 [Tetracycline]	2 (≈ 4.5 µM)	2 (≈ 4.5 µM)	2 (≈ 4.5 µM)	2 (≈ 4.5 µM)	(S)	(S)	(S)	(S)	4 (≈ 9 µM)	
COc1cc(Cc2cnc(N)nc2N)cc(OC)c1OC [Trimethoprim]	≤ 0.25	< 0.25	< 0.25	< 0.25					< 0.12	
CN[C@H](CC(C)C)C(=O)N[C@H]1C(=O)N[C@@H](CC(N)=O)C(=O)N[C@H]2C(=O)N[C@H]3C(=O)N[C@H](C(=O)N[C@H](C(=O)O)c4cc(O)cc(O)c4-c4cc3ccc4O)[C@H](O)c3ccc(c(Cl)c3)Oc3cc2cc(c3O[C@@H]2O[C@H](CO)[C@@H](O)[C@H](O)[C@H]2O[C@H]2C[C@](C)(N)[C@H](O)[C@H](C)O2)Oc2ccc(cc2Cl)[C@H]1O [Vancomycin]					(S)	(S)	(S)	(S)		MIC (ART24 [1]; Bacillus amyloliquefaciens, source CO-33-10A2 (lyophilized lot)): ≤ 0.25 µg/mL; MIC (ART24 [1]; Bacillus amyloliquefaciens, source CO-33-12A2 (lyophilized lot)): ≤ 0.25 µg/mL; MIC (ART24 [1]; Bacillus amyloliquefaciens, source CO-33 ART 24 BHI): 0.5 µg/mL (≈ 0.345 µM); MIC (ART24 [1]; Bacillus amyloliquefaciens, source CO-33 ART 024 SYD): ≤ 0.25 µg/mL; MIC (ART24 [2]; 24 h): 0.5 to 1 µg/mL (≈ 0.345 to 0.69 µM)
Gentamicin					(S)	(S)	(S)	(S)		MIC (ART24 [1]; [8]): ≤0.06 µg/mL; MIC (ART24 [1]; [9]): ≤0.06 µg/mL; MIC (ART24 [1]; source CO-33 ART 24 BHI): ≤0.06 µg/mL; MIC (ART24 [1]; source CO-33 ART 024 SYD): ≤0.06 µg/mL; ART24 MIC (ART24 [2]; [7]): ≤0.5 µg/mL
Neomycin										MIC (ART24 [1]; [8]): ≤0.12 µg/mL; MIC (ART24 [1]; [9]): ≤0.12 µg/mL; MIC (ART24 [1]; source CO-33 ART 24 BHI): ≤0.12 µg/mL; MIC (ART24 [1]; source CO-33 ART 024 SYD): ≤0.12 µg/mL; ART24 MIC (ART24 [2]; [7]): ≤0.5 µg/mL
Penicillin					(S)	(S)	(S)	(S)		MIC (ART24 [1]; [8]): ≤0.03 µg/mL; MIC (ART24 [1]; [9]): ≤0.03 µg/mL; MIC (ART24 [1]; source CO-33 ART 24 BHI): ≤0.03 µg/mL; MIC (ART24 [1]; source CO-33 ART 024 SYD): 0.06 µg/mL; ART24 MIC (ART24 [2]; [7]): 0.12 to 0.5 µg/mL
